Here are results for one compound from patent US20220304992A1, “METHODS OF REJUVENATING AGED TISSUE BY INHIBITING 15-HYDROXYPROSTAGLANDIN DEHYDROGENASE (15-PGDH)” (The Board of Trustees of the Leland Stanford Junior …, priority 2019, published 2022).

Each structure is given as a SMILES string.

The test system of experiment [1] is aged mice with PTGDS knockdown. As to the kind of experiment: SW treatment of aged mice with AAV9 shRNA knockdown of PTGDS. The format is in vivo, mouse. To be noted: aged muscles, SW one month.
Protocol: Middle aged (18-20 mo.) and aged (>24 mo.) mice C57BL/6 were obtained the US National Institute on Aging (NIA) for aged muscle studies, and young (2-4 mo.) wild-type C57BL/6 mice from Jackson Laboratory. […] Time and distance to exhaustion was performed as previously described (4) for SW-treated mice and their controls.
Overexpression of Hpgd (15-PGDH) was achieved by integrating AAV9 under CMV promoter and with eGFP under IRES (AA9-CMV-m-HPGD-IRES-eGFP) (Vector Biolabs). The control virus was AAV9-tMCK-eGFP-WPRE.
The peak isometric torque (N·mm) of the ankle plantarflexors was assessed as previously described (21, 22). Briefly, the foot of anesthetized mice was placed on a footplate attached to a servomotor (model 300C-LR; Aurora Scientific). Two Pt-Ir electrode needles (Aurora Scientific) were inserted percutaneously and subcutaneously over the tibial nerve, just posterior/posterior-medial to the knee. The ankle joint was secured at a 90° angle. The peak isometric torque was achieved by varying the current delivered to the tibial nerve at a frequency of 200 Hz and a 0.1—ms square wave pulse. We performed three tetanic measurements on each muscle, with 1 min recovery between each measurement. Data were collected with the Aurora Scientific Dynamic Muscle Data Acquisition and Analysis Software.
Experiment [2] deals with EP4 receptor on aged myofibers. The experiment can be described thus: SW treatment of aged EP4f/f mice with MCK-Cre ablation of EP4 in myofibers. The format is in vivo, mouse. Conditions: loss of EP4 expression in myofibers, SW one month. From the text: We performed all experiments and protocols in compliance with the institutional guidelines of Stanford University and Administrative Panel on Laboratory Animal Care (APLAC). Middle aged (18-20 mo.) and aged (>24 mo.) mice C57BL/6 were obtained the US National Institute on Aging (NIA) for aged muscle studies, and young (2-4 mo.) wild-type C57BL/6 mice from Jackson Laboratory. INK-ATTAC mice were generated as previously described (1). INK-ATTAC healthspan assessments. INK-ATTAC mice were crossed onto the C57BL6/J genetic background and maintained in specific-pathogen free housing on a 12-hour dark/light cycle for study duration. At 12 months of age, male mice were either utilized for baseline healthspan assessments and terminal muscle harvest or randomized to receive twice-weekly vehicle or AP20187 (2 mg/kg intraperitoneal injection; B/B homodimerizer, Clontech) until assessment and sacrifice at 28 months of age (2). […] Time and distance to exhaustion was performed as previously described (4) for SW-treated mice and their controls. […]
The peak isometric torque (N·mm) of the ankle plantarflexors was assessed as previously described (21, 22). […]

Take `CCCC[S+]([O-])c1sc2nc(-c3cccs3)cc(-c3ccccc3)c2c1N` (centres unmarked) [SW033291, 2-(butylsulfinyl)-4-phenyl-6-(thiophen-2-yl)thieno[2,3-b]pyridin-3-amine]: in experiment [1], the endurance result is listed as “increase”, the muscle force result is recorded as “increase” and the muscle mass entry is given as “increase”. Besides, in experiment [2], the “beneficial effect on muscle mass” value is “abrogated” and the “beneficial effect on muscle strength” value is “abrogated”.
